Values joined by “and” are separate entries in the source; they are usually repeats but may differ in a detail not shown here. Equal values may be shown once. Where a name gives a salt, the structure may show the parent alone. Numbered stars: 1 amine (or outer) side, 2 acyl side, 3 side chain; on linkers, the order of the positions; unused ones are H or OH. Square brackets hold non-standard residues; d marks the D form. Peptide text beside a SMILES is read from it. X1 = O=C1C(N[*:1])Cc2ccccc2CN1CCC(=O)[*:2]; Dmt = Cc1cc(O)cc(C)c1C[C@H](N)C(=O)O
How the values were obtained:
[1] = Whole-body plethysmography, respiratory effects in rats; conditions: Sprague-Dawley, rat, in vivo, iv; for ED50: rats, plethysmography at Tmax, sigmoidal Emax model, mean (CV%)
Sprague-Dawley rats [2] = assay: as above; conditions: for Inspiratory time E0 / Inspiratory time Emax / Peak of respiratory effects (time) / TI, AUC method, in comparison to controls / Effect on expiratory time (TE) versus baseline, time-course / Effect on minute volume (VM) versus baseline, time-course: IV; for Inspiratory time E0 / Inspiratory time Emax: rats, TI(Tmax) − TI(T0), sigmoidal Emax model, mean (CV%); for Peak of respiratory effects (time) / TI, AUC method, in comparison to controls: time-course study 3A; for Effect on expiratory time (TE) versus baseline, time-course: KGNOP1 from 5 to 240 min, KGOP1 from 15 to 120 min; for Effect on minute volume (VM) versus baseline, time-course: morphine at 30 min, KGNOP1 from 5 to 45 min, KGOP1 at 15 min; for Time after injection at which significant increase in TI started: IV 17.52 μmol/kg morphine, 17.62 μmol/kg tramadol, 0.34 μmol/kg KGNOP1 or KGOP1
[3] = cited from earlier work
[4] = cited from earlier work; for Blood–brain barrier transport mechanism: in vitro cell-based human model with BBB-PAMPA
[5] = system: SN-CCI Sprague-Dawley rats; assay: Cold-plate test, cold hyperalgesia in SN-CCI rats; format: in vivo, rat; conditions: for Persistence of effects on cold hyperalgesia after injection: IV 0.34 μmol/kg KGNOP1 or KGNOP3 (persisted up to), 17.62 μmol/kg tramadol (declined after), observation 420 min; for Cold hyperalgesia Tmax (time of peak effect): IV 0.34 μmol/kg KGNOP1 or KGNOP3, 17.62 μmol/kg tramadol
Protocol: We used the chronic constriction injury of the sciatic nerve (SN-CCI) model to induce neuropathic pain in rats.[4] The rat's right sciatic nerve was exposed under anesthesia using ketamine (70 mg/kg intraperitoneally [IP]) and xylazine (10 mg/kg IP). Subsequently, the nerve was ligated proximally to the sciatic trifurcation with four 4-0 chromic gut sutures (Ethicon, Issy-les-Moulineaux, France). Rats were then returned to their individual cages for a recovery period of 14 days, allowing complete anesthesia washout and neuropathic pain development.
The individual SN-CCI rats were kept inside a transparent cylinder on the cooled surface of the plate (4.0°C ± 0.2°C; Panlab, Barcelona, Spain).[15] The total leg lift counts of the right hind paw were counted for 5 minutes. Counts were excluded when the hind paw was lifted while walking. The first measurement was performed after a 10-minute period of accommodation while the animal was quiet. Drugs were intravenously (IV) administered at T0. […] The percentage of decrease in leg lift counts was calculated based on the following equation: [drawing 1]
Cold hyperalgesia was assessed during 420 minutes after the drug administration. Tmax was determined for each drug.

NOP receptor = molecular target: NOP receptor; set-up: method as in PMID 27035422; conditions: mean ± SEM; read-out: Binding affinity (Ki) NOP receptor; cited from earlier work
[6] = system: guinea pig ileum (mu-opioid receptor); set-up: method as in PMID 27035422; conditions: mean ± SEM, read-out: Opioid activity (IC50) GPI; cited from earlier work
δ-opioid receptor = molecular target: δ-opioid receptor; set-up: method as in PMID 27035422; conditions: mean ± SEM; read-out: Binding affinity (Ki) δ-opioid receptor; cited from earlier work
Sprague-Dawley rats [7] = assay: Hot-plate test, thermal nociception in rats; format: in vivo, rat; conditions: IV, sigmoidal Emax model
Protocol: The individual rats were kept inside a transparent cylinder on the heated surface of the plate (52.0°C ± 0.2°C; Panlab).[27] Licking, brisk shaking of the hind paw, and jumping were considered as signs of thermal nociception. The cut-off time was set at 60 seconds. The first measurement was performed after a 10-minute period of accommodation while the animal was quiet. Drugs were intravenously (IV) administered at T0. Thermal nociception was recorded at −30, −15, −5, 5, 10, 15, 30, 45, 60, 90, 120, 180, 240, 300, 360, and 420 minutes (study 2A). […] The maximum possible effect (MPE%) was calculated based on the following equation: [drawing 2]
The pharmacological model was applied to the investigated drug effects using the maximum likelihood expectation maximization algorithm implemented in WinNonlin (Version 5.1; Pharsight, Princeton, NJ). A standard error variance model was defined as: [drawing 4] where yi is the ith predicted value from the pharmacological model. All model parameters were assumed to be log-normally distributed. Model selection was based on goodness-of-fit criteria, which included the convergence criterion (CV%), the Akaike information criterion, the estimation criterion value for the maximum likelihood method, and the visual inspection of predicted vs observed and residual plots. Estimated parameters for dose–effect relationships are expressed as mean (CV%).
Thermal nociception was measured during 420 minutes after the drug administration. Tmax was determined for each drug.
Thermal nociception was performed to assess the ED50 at the Tmax previously observed in study 2A.

Sprague-Dawley rats [8] = assay: Benefit-to-respiratory toxicity ratio (ED50 ratio); conditions: from ED50 on cold hyperalgesia and ED50 on VM, SN-CCI rat, IV
[9] = IV, SN-CCI rats, sigmoidal Emax model, mean (CV%)

## CC[C@H](C)[C@H](NC(=O)[C@H](CCCNC(=N)N)NC(=O)[C@H](Cc1ccc(O)cc1)NC(=O)[C@H](Cc1ccc(O)cc1)NC(=O)[C@H](CCCNC(=N)N)NC(=O)CCN1Cc2ccccc2CC(NC(=O)[C@@H](CCCNC(=N)N)NC(=O)[C@@H](N)Cc2c(C)cc(O)cc2C)C1=O)C(=O)N[C@@H](CCCCN)C(N)=O (stereo partly drawn) [KGNOP1, H-Dmt-D-Arg-Aba-βAla-Arg-Tyr-Tyr-Arg-Ile-Lys-NH2] (H-[Dmt][dR][X1]RYYRIK-NH2)
[1]; 0.34 μmol/kg
  Tmax: 3 h
[1]; Inspiratory time (TI) ED50, IV
  ED50: 0.63 µmol/kg
[1]; Minute volume (VM) ED50, IV
  ED50: 0.57 µmol/kg
Sprague-Dawley rats [2]; IV 0.34 μmol/kg, P < 0.05
  VT, AUC method, in comparison to morphine-treated rats: significantly decreased
Sprague-Dawley rats [2]; IV 0.34 μmol/kg, P < 0.05 and P < 0.01
  TE, AUC method, in comparison to morphine- and tramadol-treated rats: significantly decreased
Sprague-Dawley rats [2]
  Inspiratory time E0: 0.06 (13.1) s
  Inspiratory time Emax: 0.16 (16.1) s
  Peak of respiratory effects (time): 180 min
  TI, AUC method, in comparison to controls: not
  Effect on expiratory time (TE) versus baseline, time-course: significantly decreased
  Effect on minute volume (VM) versus baseline, time-course: increased
[3]
  Stability against enzymatic degradation: has stability against enzymatic degradation
[4]
  Blood–brain barrier penetration: able to penetrate the blood–brain barrier
  Blood–brain barrier transport mechanism: transported by active mechanisms and not through passive diffusion

## CC[C@H](C)[C@H](NC(=O)[C@H](CCCNC(=N)N)NC(=O)[C@H](Cc1ccc(O)cc1)NC(=O)[C@H](Cc1ccc(O)cc1)NC(=O)[C@H](CCCNC(=N)N)NC(C)=O)C(=O)N[C@@H](CCCCN)C(N)=O [KGNOP3, Ac-Arg-Tyr-Tyr-Arg-Ile-Lys-NH2]
[5]
  Persistence of effects on cold hyperalgesia after injection: […]
[5]; SN-CCI rats
  Cold hyperalgesia Tmax (time of peak effect): 5 min
[5]; IV, SN-CCI rats, cold-plate test at Tmax, sigmoidal Emax model, mean (CV%)
  Cold hyperalgesia ED50: 0.32 μmol/kg and 0.29 (9) μmol/kg
[5]; [9]
  Cold hyperalgesia E0 (baseline effect): −20.1 (20.7) %
  Cold hyperalgesia Emax: −76 (5.1) %
NOP receptor
  Ki: […]
[4]
  Blood–brain barrier transport mechanism: transported by active mechanisms and not through passive diffusion

## Cc1cc(O)cc(C)c1C[C@H](N)C(=O)N[C@H](CCCNC(=N)N)C(=O)NC1Cc2ccccc2CN(CCC(N)=O)C1=O (stereo partly drawn) [KGOP1, H-Dmt-D-Arg-Aba-βAla-NH2]
[6]
  IC50: 0.8 ± 0.1 nM
[1]; 0.34 μmol/kg
  Tmax: 4 h
[1]; Inspiratory time (TI) ED50, IV
  ED50: 0.52 µmol/kg
[1]; Minute volume (VM) ED50, IV
  ED50: 0.66 µmol/kg
Sprague-Dawley rats [2]
  Inspiratory time E0: 0.029 (9.7) s
  Inspiratory time Emax: 0.15 (15.1) s
  Peak of respiratory effects (time): 240 min
  TI, AUC method, in comparison to controls: not
  Effect on expiratory time (TE) versus baseline, time-course: significantly decreased
  Effect on minute volume (VM) versus baseline, time-course: increased
δ-opioid receptor
  Ki: 17 ± 0.3 nM
[4]
  Blood–brain barrier transport mechanism: transported by active mechanisms and not through passive diffusion

## CN1CC[C@]23c4c5ccc(O)c4O[C@H]2[C@@H](O)C=C[C@H]3[C@H]1C5 [Morphine, Morphine sulfate, reference compound]
[1]; Inspiratory time (TI) ED50, IV
  ED50: 12.2 µmol/kg
[1]; Minute volume (VM) ED50, IV
  ED50: 10.6 µmol/kg
Sprague-Dawley rats [2]
  Time after injection at which significant increase in TI started: 5 min
  Inspiratory time E0: 0.006 (11.5) s
  Inspiratory time Emax: 0.16 (5.9) s
  Effect on expiratory time (TE) versus baseline, time-course: did not exhibit significant effects
  Effect on minute volume (VM) versus baseline, time-course: decreased
Sprague-Dawley rats [2]; IV 17.52 μmol/kg, at 5, 90, 120, 180, 240, 300 and 360 min
  Effect on tidal volume (VT) versus baseline, time-course: reduction
Sprague-Dawley rats [7]; MPE%, mean (CV%)
  Thermal nociception Emax: 100 (5.1) %
Sprague-Dawley rats [7]; * fixed value
  Thermal nociception E0 (baseline effect): 0* %
Sprague-Dawley rats [7]; Rattus norvegicus, hot-plate test at Tmax, mean (CV%)
  ED50: 14.7 µmol/kg

## COc1cccc(C2(O)CCCCC2CN(C)C)c1 (stereo not drawn) [Tramadol, Tramadol hydrochloride, reference compound]
[5]
  Persistence of effects on cold hyperalgesia after injection: 60 min
[5]; SN-CCI rats
  Cold hyperalgesia Tmax (time of peak effect): 5 min
[5]; [9]
  Cold hyperalgesia E0 (baseline effect): −26.4 (21.6) %
  Cold hyperalgesia Emax: −92 (5.6) %
[5]; Rattus norvegicus, IV, SN-CCI rats, cold-plate test at Tmax, sigmoidal Emax model, mean (CV%)
  ED50: 12.1 µmol/kg
Sprague-Dawley rats [8]
  Benefit-to-respiratory toxicity ratio, neuropathic pain (ED50 ratio): 0.24
[1]
  Tmax: 0.5 h
[1]; Inspiratory time (TI) ED50, IV
  ED50: 50.9 µmol/kg
[1]; Minute volume (VM) ED50, IV
  ED50: 50 µmol/kg
Sprague-Dawley rats [2]
  Time after injection at which significant increase in TI started: 180 min
  Inspiratory time E0: 0.006 (14.7) s
  Inspiratory time Emax: 0.17 (34.6) s
  Peak of respiratory effects (time): 30 min
  TI, AUC method, in comparison to controls: not
  Effect on expiratory time (TE) versus baseline, time-course: did not exhibit significant effects
Sprague-Dawley rats [2]; IV 17.62 μmol/kg, P < 0.05
  VM, AUC method, compared to controls: significantly decreased
